Experimental data: PubChem BioAssay AID192 (DTP/NCI, 2004)
Several values for one entry are separate records, joined by “and”; a condition that tells them apart may be missing. Equal entries are not always repeated. Inconclusive results and toxic doses are left out.

System: BDF1 mice, B16 melanoma ip, median survival T/C
Assay: NCI In Vivo Anticancer Drug Screen. Data for tumor model B16 Melanoma (intraperitoneal) in B6D2F1 (BDF1) mice
Conditions: endpoint: median survival time, higher = longer survival
Outline: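 Tumor-bearing mice received test compound or vehicle. Survival or tumor size was then measured in both groups. The treated-group figure was divided by the control-group figure.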

[1] = dose: 100.0 mg/kg/injection, schedule: Q01DX009 (ip), vehicle: Klucel (hydroxypropylcellulose) (HPC)
[2] = dose: 200.0 mg/kg/injection, schedule: Q01DX009 (ip), vehicle: Klucel (hydroxypropylcellulose) (HPC)
[3] = dose: 400.0 mg/kg/injection, schedule: Q01DX009 (ip), vehicle: Klucel (hydroxypropylcellulose) (HPC)

**Q.** How did the T/C (dose: 8.0 mg/kg/injection, schedule: Q01DX009 (ip), vehicle: saline with Tween-80) turn out when `Cc1cccc2c(Nc3ccc(NS(C)(=O)=O)cc3)c3ccc([N+](=O)[O-])cc3nc12` was run?
**A.** 155 % of control

**Q.** What about the T/C (dose: 12.0 mg/kg/injection, schedule: Q01DX009 (ip), vehicle: saline with Tween-80) of the same compound?
**A.** 194 % of control

**Q.** What does the source list for `O=C(O)/C=C/C(=O)Nc1cccc(Oc2ccc([N+](=O)[O-])cc2[N+](=O)[O-])c1`?
**A.** T/C (dose: 150.0 mg/kg/injection, schedule: Q01DX009 (ip), vehicle: Klucel (hydroxypropylcellulose) (HPC)): 90 % of control; T/C (dose: 300.0 mg/kg/injection, schedule: Q01DX009 (ip), vehicle: Klucel (hydroxypropylcellulose) (HPC)): 107 % of control

**Q.** For `CCCCCC/C=C/[N+]([O-])=NC(COC)C(C)O` (centres undefined), which T/C (dose: 5.0 mg/kg/injection, schedule: Q01DX009 (ip), vehicle: Klucel (hydroxypropylcellulose) (HPC)) is on record?
**A.** 107 % of control

**Q.** And the T/C (dose: 10.0 mg/kg/injection, schedule: Q01DX009 (ip), vehicle: Klucel (hydroxypropylcellulose) (HPC))?
**A.** 105 % of control

**Q.** `CN(C)c1ccc(-c2cc[n+](C)cc2)cc1` was tested. Which T/C (dose: 0.5 mg/kg/injection, schedule: Q01DX009 (ip), vehicle: saline) did it give?
**A.** 109 % of control

**Q.** What about the T/C (dose: 1.0 mg/kg/injection, schedule: Q01DX009 (ip), vehicle: saline) of the same compound?
**A.** 103 % of control

**Q.** What about the T/C (dose: 2.0 mg/kg/injection, schedule: Q01DX009 (ip), vehicle: saline) of the same compound?
**A.** 101 % of control

**Q.** And the T/C (dose: 3.0 mg/kg/injection, schedule: Q01DX009 (ip), vehicle: saline)?
**A.** 104 % of control

**Q.** What about the T/C (dose: 6.0 mg/kg/injection, schedule: Q01DX009 (ip), vehicle: saline) of the same compound?
**A.** 92 % of control

**Q.** `O=C(Nc1ccccc1)OCC(CN1CCCCC1)OC(=O)Nc1ccccc1` (centres undefined) was tested. Which T/C (dose: 50.0 mg/kg/injection, schedule: Q04DX003 (ip), vehicle: saline with Tween-80) did it give?
**A.** 104 % of control

**Q.** What about the T/C (dose: 100.0 mg/kg/injection, schedule: Q04DX003 (ip), vehicle: saline with Tween-80) of the same compound?
**A.** 102 % of control

**Q.** And the T/C (dose: 200.0 mg/kg/injection, schedule: Q04DX003 (ip), vehicle: saline with Tween-80)?
**A.** 100 % of control

**Q.** What does the source list for `CC(=O)OC1C(O)C(C)OC(OC2C(OC(=O)C3CCC4C(C3)OC3(CC(OC(=O)/C=C/c5ccccc5)C(C)CO3)C43CO3)OC(C)C(O)C2OC(C)=O)C1O` (centres undefined)?
**A.** T/C (dose: 0.5 mg/kg/injection, schedule: Q01DX009 (ip), vehicle: saline + alcohol): 110 % of control; T/C (dose: 1.0 mg/kg/injection, schedule: Q01DX009 (ip), vehicle: saline + alcohol): 120 % of control; T/C (dose: 8.0 mg/kg/injection, schedule: Q01DX009 (ip), vehicle: saline + alcohol): 152 % of control and 158 % of control; T/C (dose: 16.0 mg/kg/injection, schedule: Q01DX009 (ip), vehicle: saline + alcohol): 151 % of control

**Q.** For `O=S(=O)(Nc1ccccc1)c1ccc(C2CC3(Cl)C(Cl)=C(Cl)C2(Cl)C3(Cl)Cl)cc1` (centres undefined), which T/C [1] is on record?
**A.** 100 % of control

**Q.** And the T/C [2]?
**A.** 87 % of control

**Q.** Which T/C [1] does the source give for `CCN(C(=O)Nc1cccc2ccccc12)c1ccccc1` here?
**A.** 102 % of control

**Q.** What about the T/C [2] of the same compound?
**A.** 88 % of control

**Q.** And the T/C [3]?
**A.** 91 % of control

**Q.** For `CN(C)N=Nc1ccc(C(=O)O)cc1`, which T/C (dose: 25.0 mg/kg/injection, schedule: Q01DX009 (ip), vehicle: saline) is on record?
**A.** 113 % of control

**Q.** What about the T/C (dose: 50.0 mg/kg/injection, schedule: Q01DX009 (ip), vehicle: saline) of the same compound?
**A.** 119 % of control

**Q.** For `O=C(Nc1ccccc1F)c1ccc(Cl)c(Cl)c1`, which T/C (dose: 50.0 mg/kg/injection, schedule: Q01DX009 (ip), vehicle: Klucel (hydroxypropylcellulose) (HPC)) is on record?
**A.** 100 % of control

**Q.** What about the T/C [1] of the same compound?
**A.** 87 % of control

**Q.** What about the T/C [2] of the same compound?
**A.** 90 % of control

**Q.** What about the T/C [3] of the same compound?
**A.** 94 % of control

**Q.** For `Nc1ccn(C2OC(COP(=O)(O)O)C(O)C2O)c(=O)n1` (centres undefined), which T/C (dose: 16.0 mg/kg/injection, schedule: Q01DX009 (ip), vehicle: saline with Tween-80) is on record?
**A.** 105 % of control

**Q.** What about the T/C (dose: 32.0 mg/kg/injection, schedule: Q01DX009 (ip), vehicle: saline with Tween-80) of the same compound?
**A.** 105 % of control

**Q.** What about the T/C (dose: 64.0 mg/kg/injection, schedule: Q01DX009 (ip), vehicle: saline with Tween-80) of the same compound?
**A.** 115 % of control

**Q.** And the T/C (dose: 128.0 mg/kg/injection, schedule: Q01DX009 (ip), vehicle: saline with Tween-80)?
**A.** 122 % of control

**Q.** How did the T/C (dose: 1.56 mg/kg/injection, schedule: Q01DX009 (ip), vehicle: saline) turn out when `CCN(CC)[P+](c1ccccc1O)(N(CC)CC)N(CC)CC` was run?
**A.** 100 % of control

**Q.** And the T/C (dose: 3.12 mg/kg/injection, schedule: Q01DX009 (ip), vehicle: saline)?
**A.** 105 % of control

**Q.** And the T/C (dose: 6.25 mg/kg/injection, schedule: Q01DX009 (ip), vehicle: saline)?
**A.** 107 % of control and 114 % of control

**Q.** Which results are given for `COC(CCC#N)c1ccc(Cl)cc1` (centres undefined)?
**A.** T/C (dose: 100.0 mg/kg/injection, schedule: Q01DX009 (ip), vehicle: saline with Tween-80): 101 % of control; T/C (dose: 200.0 mg/kg/injection, schedule: Q01DX009 (ip), vehicle: saline with Tween-80): 96 % of control; T/C (dose: 400.0 mg/kg/injection, schedule: Q01DX009 (ip), vehicle: saline with Tween-80): 98 % of control

**Q.** With `Cc1cccc(C2=NCCN2)c1C` as the compound, how does the T/C (dose: 5.0 mg/kg/injection, schedule: Q04DX003 (ip), vehicle: saline with Tween-80) read?
**A.** 116 % of control

**Q.** What about the T/C (dose: 20.0 mg/kg/injection, schedule: Q04DX003 (ip), vehicle: saline with Tween-80) of the same compound?
**A.** 116 % of control

**Q.** For `Oc1ccc(Cl)c2cccnc12`, which T/C (dose: 12.5 mg/kg/injection, schedule: Q01DX009 (ip), vehicle: carboxymethylcellulose (CMC)) is on record?
**A.** 90 % of control

**Q.** What about the T/C (dose: 25.0 mg/kg/injection, schedule: Q01DX009 (ip), vehicle: carboxymethylcellulose (CMC)) of the same compound?
**A.** 96 % of control

**Q.** What about the T/C (dose: 50.0 mg/kg/injection, schedule: Q01DX009 (ip), vehicle: carboxymethylcellulose (CMC)) of the same compound?
**A.** 97 % of control
